Results as given in PMC5856393, “Synthetic pathways and processes for effective production of 5-hydroxytryptophan and serotonin from glucose in Escherichia coli” (Journal of Biological Engineering, 2018).

Key:
[1] = target: T1, TDC (tryptophan decarboxylase) (Catharanthus roseus, UniProt P17770); experiment: whole-cell bioconversion, HPLC of serotonin; type: cell-based; conditions: E. coli BL21(DE3) delta-tnaA expressing TDC; pH 6.7, 30 °C
T1 construct: expressed in E. coli BL21(DE3) delta-tnaA from pCOLAJ23-TDC; gene from pCOLADuet-GSTdelta37T5H + TDC
T1 sequence (P17770 whole entry): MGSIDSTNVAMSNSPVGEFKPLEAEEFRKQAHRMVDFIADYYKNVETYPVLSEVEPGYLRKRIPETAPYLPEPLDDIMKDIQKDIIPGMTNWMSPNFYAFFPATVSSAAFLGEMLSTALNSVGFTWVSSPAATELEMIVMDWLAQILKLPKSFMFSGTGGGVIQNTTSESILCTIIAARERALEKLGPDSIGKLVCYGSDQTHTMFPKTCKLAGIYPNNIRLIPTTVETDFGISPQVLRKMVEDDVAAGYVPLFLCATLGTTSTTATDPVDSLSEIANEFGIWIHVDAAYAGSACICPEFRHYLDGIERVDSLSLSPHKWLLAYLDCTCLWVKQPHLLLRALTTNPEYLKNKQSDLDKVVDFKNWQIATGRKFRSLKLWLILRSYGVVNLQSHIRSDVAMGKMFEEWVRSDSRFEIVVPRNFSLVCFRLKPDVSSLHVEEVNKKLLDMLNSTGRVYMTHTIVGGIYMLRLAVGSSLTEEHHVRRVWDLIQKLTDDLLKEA

[2] = target: T2, CtAAAH-F (aromatic amino acid hydroxylase W192F) (Cupriavidus taiwanensis, UniProt B3R7Q6, W192F); experiment: tryptophan hydroxylation assay, Lineweaver-Burk plot; type: biochemical; conditions: parent CtAAAH-F (W192F); assay conditions only by citation
T2 construct: gene phhA; engineered W192F parent, expressed in E. coli from pACYCDuet-1 derivatives; tag and purification not described here
T2 sequence (B3R7Q6 entry or part of it W192F): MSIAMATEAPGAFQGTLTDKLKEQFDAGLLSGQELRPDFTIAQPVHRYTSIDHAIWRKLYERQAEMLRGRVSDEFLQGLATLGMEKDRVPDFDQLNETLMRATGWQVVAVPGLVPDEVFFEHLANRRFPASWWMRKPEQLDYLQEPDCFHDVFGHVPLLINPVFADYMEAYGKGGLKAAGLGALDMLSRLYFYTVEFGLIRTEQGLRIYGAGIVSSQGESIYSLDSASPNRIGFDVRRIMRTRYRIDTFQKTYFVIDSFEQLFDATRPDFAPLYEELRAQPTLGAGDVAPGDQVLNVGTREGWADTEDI
From the text: (§1) tryptophan hydroxylation assay, Lineweaver-Burk plot on CtAAAH-F (aromatic amino acid hydroxylase W192F)

[3] = target: T3, CtAAAH-F (aromatic amino acid hydroxylase W192F) (Cupriavidus taiwanensis, UniProt B3R7Q6, W192F/F197L); experiment: as above; type: biochemical; conditions: made in the CtAAAH-F (W192F) background; assay conditions only by citation
T3 construct: gene phhA; engineered W192F parent, expressed in E. coli from pACYCDuet-1 derivatives; tag and purification not described here
T3 sequence (B3R7Q6 entry or part of it W192F/F197L): as the sequence (B3R7Q6 entry or part of it W192F) above, with F197L counted along it
From the text: as §1

[4] = target: T4, CtAAAH-F (aromatic amino acid hydroxylase W192F) (Cupriavidus taiwanensis, UniProt B3R7Q6, W192F/F197L/E219C); experiment: as above; type: biochemical; conditions: made in the CtAAAH-F (W192F) background; assay conditions only by citation
T4 construct: gene phhA; engineered W192F parent, expressed in E. coli from pACYCDuet-1 derivatives; tag and purification not described here
T4 sequence (B3R7Q6 entry or part of it W192F/F197L/E219C): as the sequence (B3R7Q6 entry or part of it W192F) above, with F197L, E219C counted along it
From the text: as §1

[5] = target: T5, CtAAAH-F (aromatic amino acid hydroxylase W192F) (Cupriavidus taiwanensis, UniProt B3R7Q6, W192F/F197I); experiment: as above; type: biochemical; conditions: made in the CtAAAH-F (W192F) background; assay conditions only by citation
T5 construct: gene phhA; engineered W192F parent, expressed in E. coli from pACYCDuet-1 derivatives; tag and purification not described here
T5 sequence (B3R7Q6 entry or part of it W192F/F197I): as the sequence (B3R7Q6 entry or part of it W192F) above, with F197I counted along it
From the text: as §1

[6] = target: T6, CtAAAH-F (aromatic amino acid hydroxylase W192F) (Cupriavidus taiwanensis, UniProt B3R7Q6, W192F/E219C); experiment: as above; type: biochemical; conditions: made in the CtAAAH-F (W192F) background; assay conditions only by citation
T6 construct: gene phhA; engineered W192F parent, expressed in E. coli from pACYCDuet-1 derivatives; tag and purification not described here
T6 sequence (B3R7Q6 entry or part of it W192F/E219C): as the sequence (B3R7Q6 entry or part of it W192F) above, with E219C counted along it
From the text: as §1

Km [2]	Km [3]	Km [4]	Km [5]	Km [6]	Compound	whole-cell bioconversion, HPLC of serotonin [1]
					N[C@@H](Cc1c[nH]c2ccc(O)cc12)C(=O)O [5HTP]	The consumption of 5HTP and serotonin production had a strong correlation
3000 µM	1600 µM	950 µM	2100 µM	1800 µM	N[C@@H](Cc1c[nH]c2ccccc12)C(=O)O [tryptophan]	
